Earlier results in patent US11678683B2, “Processed edible product comprising a polyelectrolyte complex and an antimicrobial compound” (Ceradis B.V., priority 2013, dated 2023).

What was measured:
[1] = neutral aqueous systems

C[C@@H]1C/C=C/C=C/C=C/C=C/[C@H](O[C@@H]2O[C@H](C)[C@@H](O)[C@H](N)[C@@H]2O)C[C@@H]2O[C@](O)(C[C@@H](O)C[C@H]3O[C@@H]3/C=C/C(=O)O1)C[C@H](O)[C@H]2C(=O)O [Natamycin, natamycin]
MIC (Minimal Inhibitory Concentration) (most fungi): less than 10 ppm
Solubility [1]: 30-40 ppm
